Reference: patent US11440913B2, “Aminoimidazopyridazines as kinase inhibitors” (BRISTOL-MYERS SQUIBB COMPANY, priority 2017, dated 2022)
Counter-ions that a name gives are not always drawn. Like-named read-outs stand apart in the source and are kept apart here.

Legend:
[1] = target: His-GST-TVMV-hRIPK1(1-324) (Homo sapiens (Human), UniProt Q13546); experiment: RIPK1 HTRF Binding Assay; conditions: HTRF binding, 1 h at rt, read-out: RIPK1 (IC50)
How it was run: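 HTRF probe-displacement binding: 1 nM His-GST-TVMV-hRIPK1(1-324) (baculovirus construct), 90.6 nM probe, 0.2 nM anti-GST-Tb in 20 mM HEPES, 10 mM MgCl2, 0.015% Brij-35, 4 mM DTT, 0.05 mg/mL BSA. Incubated 1 h at rt; FRET 520/495 nm ratio, inhibition relative to DMSO-only wells.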

[2] = tested on: MLKL phosphorylation in HT29-L23 human colorectal adenocarcinoma cells; experiment: MLKL Phosphorylation High-Content Assay; format: cell-based; conditions: 6 h, necroptosis induced with TNFα, SMAC mimetic and Z-VAD, read-out: pMLKL (IC50)
How it was run: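 HT29-L23 cells pretreated 30 min at 37 °C with compound (6.25 to 0.106 μM final), then necroptosis induced with TNFα 35 ng/mL, SMAC mimetic 700 nM and Z-VAD 140 nM for 6 h. Fixed cells immunostained for MLKL pS358 and imaged; IC50 and Ymax from 4-parameter logistic fit.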

Chain of His-GST-TVMV-hRIPK1(1-324) (Q13546 1-324): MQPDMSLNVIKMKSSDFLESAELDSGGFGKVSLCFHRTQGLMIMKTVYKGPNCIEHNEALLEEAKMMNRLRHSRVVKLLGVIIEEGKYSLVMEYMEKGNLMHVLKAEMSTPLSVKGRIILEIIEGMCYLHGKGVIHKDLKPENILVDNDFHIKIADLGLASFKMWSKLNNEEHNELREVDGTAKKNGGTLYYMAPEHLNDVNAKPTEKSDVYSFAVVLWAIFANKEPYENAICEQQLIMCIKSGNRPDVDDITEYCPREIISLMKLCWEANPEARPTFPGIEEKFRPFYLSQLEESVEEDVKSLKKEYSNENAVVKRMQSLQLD

Compound | IC50 [1] | IC50 ([2]; Homo sapiens) | IC50 [2] | IC50 ([1]; TFA) | IC50 ([2]; TFA)
CC(=O)Nc1cn2nc(-c3cnc(C)c(C(=O)NCc4ccccc4OC(F)(F)F)c3)ccc2n1 [Example 220, 5-{2-acetamidoimidazo[1,2-b]pyridazin-6-yl}-2-methyl-N-{[2-(trifluoromethoxy)phenyl]methyl}pyridine-3-carboxamide] | 202 nM | 406 nM | – | – | –
[2H]C([2H])([2H])[C@@H](NC(=O)c1c(F)ccc(-c2ccc3nc(NC(C)=O)cn3n2)c1F)c1cc(OC(F)(F)F)ccc1F [Example 380, 3-{2-acetamidoimidazo [1,2-b]pyridazin-6-yl}-2,6-difluoro-N-[(1R)-1-[2-fluoro-5-(trifluoromethoxy)phenyl](2,2,2-Â^2Hâ,f)ethyl} benzamide] | 3 nM | 9 nM | – | – | –
CC(=O)Nc1cn2nc(-c3ccc(F)c(C(=O)NCc4cc(F)ccc4C(=O)N4CCC(F)(F)CC4)c3F)ccc2n1 [Example 381, N-{[2-(4,4-difluoropiperidine-1-carbonyl)-5-fluorophenyl]methyl}-3-{2-acetamidoimidazo [1,2-b]pyridazin-6-yl}-2,6-difluorobenzamide] | 8 nM | 74 nM | – | – | –
CC(=O)Nc1cn2nc(-c3ccc(C)c(C(=O)NCc4cc(C(=O)N5CC(F)(F)C5)ccc4F)c3)ccc2n1 [Example 404, N-{[5-(3,3-difluoroazetidine-1-carbonyl)-2-fluorophenyl]methyl}-5-{2-acetamidoimidazo [1,2-b]pyridazin-6-yl}-2-methylbenzamide] | 52 nM | 259 nM | – | – | –
[2H]C([2H])([2H])Oc1ncc(-c2ccc3nc(NC(C)=O)cn3n2)cc1C(=O)NCc1ccc(F)c(F)c1OCC1CC1 [Example 53, N-{[2-(cyclopropylmethoxy)-3,4-difluorophenyl]methyl}-5-{2-acetamidoimidazo[1,2-b]pyridazin-6-yl}-2-(D3)methoxypyridine-3-carboxamide] | 62 nM | 81 nM | – | – | –
[2H]C([2H])([2H])Oc1nc(C)c(-c2ccc3nc(NC(C)=O)cn3n2)cc1C(=O)NCc1cc(F)cc(F)c1O[C@H]1CCOC1 [Example 171, N-({3,5-difluoro-2-[(3S)-oxolan-3-yloxy]phenyl}methyl)-5-{2-acetamidoimidazo[1,2-b]pyridazin-6-yl}-2-(deutero)methoxy-6-methylpyridine-3-carboxamide] | 3 nM | 3 nM | – | – | –
COc1ncc(-c2ccc3nc(NC(=O)C(C)(C)O)cn3n2)cc1C(=O)NCc1cccc(F)c1OCC1CC1 [Example 15, N-{[2-(cyclopropylmethoxy)-3-fluorophenyl]methyl}-5-[2-(2-hydroxy-2-methylpropanamido)imidazo[1,2-b]pyridazin-6-yl]-2-methoxypyridine-3-carboxamide] | 83 nM | 198 nM | – | – | –
CC(=O)Nc1cn2nc(-c3cnc(C)c(C(=O)NCc4cc(F)cc(F)c4OC4CCCOC4)c3)ccc2n1 (centres unmarked) [Example 186, N-{[3,5-difluoro-2-(oxan-3-yloxy)phenyl]methyl}-5-{2-acetamidoimidazo[1,2-b]pyridazin-6-yl}-2-methylpyridine-3-carboxamide] | 15 nM | 96 nM | – | – | –
COc1ncc(-c2ccc3nc(NC(C)=O)cn3n2)cc1C(=O)N[C@@H](C)c1cc(C(F)(F)F)ccc1F [Example 106, 5-{2-acetamidoimidazo[1,2-b]pyridazin-6-yl}-N-[(1S)-1-[2-fluoro-5-(trifluoromethyl)phenyl](2,2,2-deutero)ethyl]-2-methoxypyridine-3-carboxamide] | 84 nM | – | 95 nM | – | –
[2H]C([2H])(NC(=O)c1cc(-c2ccc3nc(NC(C)=O)cn3n2)c(C)nc1C)c1cc(F)cc(F)c1OC1CCOCC1 [Example 66, N-{[3,5-difluoro-2-(oxan-4-yloxy)phenyl](deutero)methyl}-5-{2-acetamidoimidazo[1,2-b]pyridazin-6-yl}-2,6-dimethylpyridine-3-carboxamide] | 9 nM | 8 nM | – | – | –
CC(=O)Nc1cn2nc(-c3ccc(C)c(C(=O)NCc4c(F)cccc4-c4cnn(C)c4)c3)ccc2n1 [Example 402, 5-{2-acetamidoimidazo [1,2-b]pyridazin-6-yl}-N-{[2-fluoro-6-(1-methyl-1H-pyrazol-4-yl)phenyl]methyl}-2-methylbenzamide] | 56 nM | 94 nM | – | – | –
CC(=O)Nc1cn2nc(-c3cnc(C)c(C(=O)NCC[C@@H](O)c4ccc(Cl)cc4)c3)ccc2n1 [Example 211, N-[(3R)-3-(4-chlorophenyl)-3-hydroxypropyl]-5-{2-acetamidoimidazo[1,2-b]pyridazin-6-yl}-2-methylpyridine-3-carboxamide] | 62 nM | 137 nM | – | – | –
N-{[3,5-difluoro-2-(oxan-3- yloxy)phenyl]methyl}-5-{2- acetamidoimidazo[1,2-b]pyridazin- 6-yl}-2-(deutero)methoxy-6- methylpyridine-3-carboxamide [Example 170] | 4 nM | – | 3 nM | – | –
CC(=O)Nc1cn2nc(-c3cc(C(=O)NCc4cc(F)cc(F)c4OC4CCOC(C)C4)c(C)nc3C)ccc2n1 (centres unmarked) [Example 62, N-({3,5-difluoro-2-[(2-methyloxan-4-yl)oxy]phenyl}methyl)-5-{2-acetamidoimidazo[1,2-b]pyridazin-6-yl}-2,6-dimethylpyridine-3-carboxamide] | 11 nM | 29 nM | – | – | –
COc1nc(C)c(-c2ccc3nc(NC(C)=O)cn3n2)cc1C(=O)NC(C)c1cc(OC(F)(F)F)ccc1F (centres unmarked) [Example 278, 5-{2-acetamidoimidazo[1,2-b]pyridazin-6-yl}-N-{1-[2-fluoro-5-(trifluoromethoxy)phenyl]ethyl}-2-methoxy-6-methylpyridine-3-carboxamide, TFA] | – | – | – | 6 nM | 64 nM
COc1ncc(-c2ccc3nc(NC(C)=O)cn3n2)cc1C(=O)NCc1ccccc1OCC1CCC1 [Example 155, N-{[2-(cyclobutylmethoxy)phenyl]methyl}-5-{2-acetamidoimidazo[1,2-b]pyridazin-6-yl}-2-methoxypyridine-3-carboxamide] | 2 nM | 6 nM | – | – | –
COCC(=O)Nc1cn2nc(-c3cnc(OC)c(C(=O)NCc4cc(OCC5CC5)ccc4F)c3)ccc2n1 [Example 260, N-{[5-(cyclopropylmethoxy)-2-fluorophenyl]methyl}-2-methoxy-5-[2-(2-methoxyacetamido)imidazo[1,2-b]pyridazin-6-yl]pyridine-3-carboxamide] | 18 nM | 80 nM | – | – | –
COc1nc(C)c(-c2ccc3nc(NC(C)=O)cn3n2)cc1C(=O)NC(C)c1ccccc1OC(F)(F)F (centres unmarked) [Example 291, 5-{2-acetamidoimidazo[1,2-b]pyridazin-6-yl}-2-methoxy-6-methyl-N-{1-[2-(trifluoromethoxy)phenyl]ethyl}pyridine-3-carboxamide] | > 5000 nM | – | > 6250 nM | – | –
COc1nc(C)c(-c2ccc3nc(NC(C)=O)cn3n2)cc1C(=O)NCc1c(F)cc(F)cc1OCC1CCCC1 [Example 308, N-{[2-(cyclopentylmethoxy)-4,6-difluorophenyl]methyl}-5-{2-acetamidoimidazo[1,2-b]pyridazin-6-yl}-2-methoxy-6-methylpyridine-3-carboxamide] | 8 nM | 11 nM | – | – | –
CC(=O)Nc1cn2nc(-c3cc(C(=O)N[C@H](C)c4cc(OC(F)(F)F)ccc4F)c(C)nc3C)ccc2n1 [Example 71, 5-{2-acetamidoimidazo[1,2-b]pyridazin-6-yl}-N-[(1R)-1-[2-fluoro-5-(trifluoromethoxy)phenyl]ethyl]-2,6-dimethylpyridine-3-carboxamide] | 5 nM | 13 nM | – | – | –
CC(=O)Nc1cn2nc(-c3cc(C(=O)NCc4cc(F)cc(F)c4OCC4CC4)cnc3C)ccc2n1 [Example 16, N-{[2-(cyclopropylmethoxy)-3,5-difluorophenyl]methyl}-5-{2-acetamidoimidazo[1,2-b]pyridazin-6-yl}-6-methylpyridine-3-carboxamide] | 4 nM | 5 nM | – | – | –
COc1nc(C)c(-c2ccc3nc(NC(C)=O)cn3n2)cc1C(=O)N(C)Cc1ccccc1OC(F)(F)F [Example 283, 5-{2-acetamidoimidazo[1,2-b]pyridazin-6-yl}-2-methoxy-N,6-dimethyl-N-{[2-(trifluoromethoxy)phenyl]methyl}pyridine-3-carboxamide] | 16 nM | 67 nM | – | – | –
CC(CCNC(=O)c1cccc(-c2ccc3nc(NC(=O)c4ccnc(F)c4)cn3n2)c1)c1ccccc1 (centres unmarked) [Example 24, 2-fluoro-N-(6-{3-[(3-phenylbutyl)carbamoyl]phenyl}imidazo[1,2-b]pyridazin-2-yl)pyridine-4-carboxamide] | 5 nM | 10 nM | – | – | –
COc1ccc(-c2ccc3nc(NC(C)=O)cn3n2)c(F)c1C(=O)NCc1ccccc1OCC1CC1 [Example 377, N-{[2-(cyclopropylmethoxy)phenyl]methyl}-3-{2-acetamidoimidazo [1,2-b]pyridazin-6-yl}-2-fluoro-6-methoxybenzamide] | 67 nM | 135 nM | – | – | –
Cc1ncc(-c2ccc3nc(NC(=O)CO)cn3n2)cc1C(=O)NCc1cc(C(F)(F)F)ccc1F [Example 183, N-{[2-fluoro-5-(trifluoromethyl)phenyl]methyl}-5-[2-(2-hydroxyacetamido)imidazo [1,2-b]pyridazin-6-yl]-2-methylpyridine-3-carboxamide] | 166 nM | 392 nM | – | – | –
